Test results from ChEMBL document CHEMBL3813672, “Discovery of anti-cancer activity for benzo[1,2,4]triazin-7-ones: Very strong correlation to pleurotin and thioredoxin reductase inhibition” (Bioorg Med Chem, 2016).

What was measured:
[1] = Growth inhibition of human TK10 cells assessed as cell growth at 10 uM incubated for 48 hrs by sulforhodamine B assay relative to control; type: functional; conditions: TK-10, 48 h, read-out: Activity
[2] = Growth inhibition of human LOXIMVI cells assessed as cell growth at 10 uM incubated for 48 hrs by sulforhodamine B assay relative to control; type: functional; conditions: LOX IMVI, read-out: Activity
[3] = Growth inhibition of human DU145 cells assessed as cell growth at 10 uM incubated for 48 hrs by sulforhodamine B assay relative to control; type: functional; conditions: DU-145, 48 h, read-out: Activity
[4] = Growth inhibition of human Caki1 cells assessed as cell growth at 10 uM incubated for 48 hrs by sulforhodamine B assay relative to control; type: functional; conditions: CAKI-1, 48 h, read-out: Activity
[5] = Growth inhibition of human SF539 cells assessed as cell growth at 10 uM incubated for 48 hrs by sulforhodamine B assay relative to control; type: functional; conditions: SF-539, 48 h, read-out: Activity
[6] = Growth inhibition of human RPMI8226 cells assessed as cell growth at 10 uM incubated for 48 hrs by sulforhodamine B assay relative to control; type: functional; conditions: RPMI-8226, 48 h, read-out: Activity
[7] = Growth inhibition of human HCT116 cells assessed as cell growth at 10 uM incubated for 48 hrs by sulforhodamine B assay relative to control; type: functional; conditions: HCT-116, 48 h, read-out: Activity
[8] = system: MDA-MB-468; assay: Growth inhibition of human MDA-MB-468 cells assessed as cell growth at 10 uM incubated for 48 hrs by sulforhodamine B assay relative to control; type: functional; conditions: MDA-MB-468, 48 h, read-out: Activity
[9] = system: KM12; assay: Growth inhibition of human KM12 cells assessed as cell growth at 10 uM incubated for 48 hrs by sulforhodamine B assay relative to control; type: functional; conditions: KM12, 48 h, read-out: Activity
[10] = Quasi-reversible one electron redox potential in dichloromethane containing 0.1 M TBAP assessed as redox potential during 0/-1 redox transition at 2 mmol measured at 100 mV/s in presence of Fc/Fc by cyclic voltammetry; type: physicochemical
[11] = system: M14; assay: Growth inhibition of human M14 cells assessed as cell growth at 10 uM incubated for 48 hrs by sulforhodamine B assay relative to control; type: functional; conditions: M14, 48 h, read-out: Activity
[12] = system: MDA-MB-435; assay: Growth inhibition of human MDA-MB-435 cells assessed as cell growth at 10 uM incubated for 48 hrs by sulforhodamine B assay relative to control; type: functional; conditions: MDA-MB-435, 48 h, read-out: Activity
[13] = Growth inhibition of human RXF393 cells assessed as cell growth at 10 uM incubated for 48 hrs by sulforhodamine B assay relative to control; type: functional; conditions: RXF 393, 48 h, read-out: Activity
[14] = Growth inhibition of human HOP92 cells assessed as cell growth at 10 uM incubated for 48 hrs by sulforhodamine B assay relative to control; type: functional; conditions: HOP-92, 48 h, read-out: Activity
[15] = system: NCI-H226; assay: Growth inhibition of human NCI-H226 cells assessed as cell growth at 10 uM incubated for 48 hrs by sulforhodamine B assay relative to control; type: functional; conditions: NCI-H226, 48 h, read-out: Activity
[16] = Growth inhibition of human COLO205 cells assessed as cell growth at 10 uM incubated for 48 hrs by sulforhodamine B assay relative to control; type: functional; conditions: COLO 205, 48 h, read-out: Activity
[17] = system: MCF7; assay: Growth inhibition of human MCF7 cells assessed as cell growth at 10 uM incubated for 48 hrs by sulforhodamine B assay relative to control; type: functional; conditions: MCF7, 48 h, read-out: Activity
[18] = system: NCI-H460; assay: Growth inhibition of human NCI-H460 cells assessed as cell growth at 10 uM incubated for 48 hrs by sulforhodamine B assay relative to control; type: functional; conditions: NCI-H460, 48 h, read-out: Activity
[19] = system: NCI-H522; assay: Growth inhibition of human NCI-H522 cells assessed as cell growth at 10 uM incubated for 48 hrs by sulforhodamine B assay relative to control; type: functional; conditions: NCI-H522, 48 h, read-out: Activity
[20] = Growth inhibition of human OVCAR4 cells assessed as cell growth at 10 uM incubated for 48 hrs by sulforhodamine B assay relative to control; type: functional; conditions: OVCAR-4, 48 h, read-out: Activity
[21] = Growth inhibition of human SKOV3 cells assessed as cell growth at 10 uM incubated for 48 hrs by sulforhodamine B assay relative to control; type: functional; conditions: SK-OV-3, 48 h, read-out: Activity
[22] = Growth inhibition of human UACC257 cells assessed as cell growth at 10 uM incubated for 48 hrs by sulforhodamine B assay relative to control; type: functional; conditions: UACC-257, 48 h, read-out: Activity
[23] = Growth inhibition of human UO31 cells assessed as cell growth at 10 uM incubated for 48 hrs by sulforhodamine B assay relative to control; type: functional; conditions: UO-31, 48 h, read-out: Activity
[24] = Growth inhibition of human HCC2998 cells assessed as cell growth at 10 uM incubated for 48 hrs by sulforhodamine B assay relative to control; type: functional; conditions: HCC 2998, 48 h, read-out: Activity
[25] = Cytotoxicity against human GM00637 cells assessed as reduction in cell viability after 72 hrs by MTT assay; type: cell-based; conditions: GM00637, 72 h
[26] = Growth inhibition of human SNB19 cells assessed as cell growth at 10 uM incubated for 48 hrs by sulforhodamine B assay relative to control; type: functional; conditions: SNB-19, 48 h, read-out: Activity
[27] = Growth inhibition of human OVCAR5 cells assessed as cell growth at 10 uM incubated for 48 hrs by sulforhodamine B assay relative to control; type: functional; conditions: OVCAR-5, 48 h, read-out: Activity
[28] = Growth inhibition of human SF295 cells assessed as cell growth at 10 uM incubated for 48 hrs by sulforhodamine B assay relative to control; type: functional; conditions: SF-295, 48 h, read-out: Activity
[29] = Growth inhibition of human OVCAR8 cells assessed as cell growth at 10 uM incubated for 48 hrs by sulforhodamine B assay relative to control; type: functional; conditions: OVCAR-8, 48 h, read-out: Activity
[30] = Growth inhibition of human PC3 cells assessed as cell growth at 10 uM incubated for 48 hrs by sulforhodamine B assay relative to control; type: functional; conditions: PC-3, 48 h, read-out: Activity
[31] = system: T47D; assay: Growth inhibition of human T47D cells assessed as cell growth at 10 uM incubated for 48 hrs by sulforhodamine B assay relative to control; type: functional; conditions: read-out: Activity
[32] = system: CCRF-CEM; assay: Growth inhibition of human CCRF-CEM cells assessed as cell growth at 10 uM incubated for 48 hrs by sulforhodamine B assay relative to control; type: functional; conditions: read-out: Activity
[33] = system: 786-0; assay: Growth inhibition of human 786-0 cells assessed as cell growth at 10 uM incubated for 48 hrs by sulforhodamine B assay relative to control; type: functional; conditions: 786-0, 48 h, read-out: Activity

SMILES | growth at 10 µM [1] [%] | growth at 10 µM [2] [%] | growth at 10 µM [3] [%] | growth at 10 µM [4] [%] | growth at 10 µM [5] [%] | growth at 10 µM [6] [%] | growth at 10 µM [7] [%] | growth at 10 µM [8] [%] | growth at 10 µM [9] [%] | Activity [10] [V] | growth at 10 µM [11] [%] | growth at 10 µM [12] [%] | growth at 10 µM [13] [%] | growth at 10 µM [14] [%] | growth at 10 µM [15] [%] | growth at 10 µM [16] [%] | growth at 10 µM [17] [%] | growth at 10 µM [18] [%] | growth at 10 µM [19] [%] | growth at 10 µM [20] [%] | also measured
O=c1ccc2nc(-c3ccccc3)nn(-c3ccccc3)c-2c1 | -95.9 | -51.6 | -95.5 | -90.9 | 105 | -6.53 | -90.7 | -61.6 | 63.1 | -1.12 | 51.2 | 24.6 | -92.8 | -33 | 66.1 | -76.8 | -66.7 | 61.5 | -90.5 | -40.6 | growth at 10 µM [21]: 59.1%; growth at 10 µM [22]: -97.3%; growth at 10 µM [23]: -97.5%; growth at 10 µM [24]: 100%; IC50 [25]: 230 nM; growth at 10 µM [26]: 76%; growth at 10 µM [27]: 102%; growth at 10 µM [28]: 23.9%; growth at 10 µM [29]: -2.36%; growth at 10 µM [30]: 43.5%; growth at 10 µM [31]: -36.5%; growth at 10 µM [32]: -16.4%; growth at 10 µM [33]: 48.6%
O=c1ccc2nc(C(F)(F)F)nn(-c3ccccc3)c-2c1 | -95 | 4.3 | 40.5 | 56 | 92.8 | 45.6 | 35.2 | -73.5 | 96.8 | -0.86 | 62.1 | 62.3 | -20.4 | 35.2 | 77.7 | -70.7 | -49.3 | 97.3 | -56 | 79.8 | growth at 10 µM [21]: 79.3%; growth at 10 µM [22]: 35.6%; growth at 10 µM [23]: 24%; growth at 10 µM [24]: 102%; IC50 [25]: 1610 nM; growth at 10 µM [26]: 93.5%; growth at 10 µM [27]: 102%; growth at 10 µM [28]: 91.9%; growth at 10 µM [29]: 73.1%; growth at 10 µM [30]: 84.5%; growth at 10 µM [31]: -40.5%; growth at 10 µM [32]: -0.27%; growth at 10 µM [33]: 22.2%
